US11259956B2, “Combination therapy intravaginal rings” (International Partnership For Microbicides, Inc., priority 2013, dated 2022)

What was measured:
[1] = tested on: wild-type HIV-1 strains and HIV-1 strains harboring different resistance-inducing mutations; details: Das et al., J. Med Chem., 2004; cited from earlier work
[2] = Solubility of dapivirine in water; type: physicochemical

Cc1cc(C)c(Nc2ccnc(Nc3ccc(C#N)cc3)n2)c(C)c1 [dapivirine, 4-[[4-[(2,4,6-trimethylphenyl)amino]-2-pyrimidinyl]amino]benzonitrile]
Activity against HIV-1 strains [1]: potent activity
Solubility in water [2]: virtually insoluble in water
solubility [2]: < 1 µg/mL
